In patent publication US12358886B2, “Heterocyclic compounds for use in the treatment of cancer” (Artios Pharma Limited, priority 2019, dated 2025):
Like-named read-outs stand apart in the source and are kept apart here.

Target: Polθ protein (amino acids 2-2590) (Homo sapiens, UniProt O75417)
Assay: Polθ full length enzyme potency assay (PicoGreen)
Details: full length N-His, C-term FLAG tagged Polθ, PicoGreen fluorescence, 12 point concentration response
Method: Polθ Full Length Enzyme Potency Assay
PicoGreen assay was used to measure the ability of compounds to inhibit the activity of Polθ in vitro. […] DMSO concentration was maintained at 1% by back filling with DMSO solution. […] This was dispensed into each well of the compound plate using a VIAFLO 16 channel manual pipette (Integra) and pre-incubated at rt for 30 min. 3 μL of 2× working solution of dNTPs (40 μM) (dATP, dCTP, dGTP, dTTP; Sigma D6500, D4635, D4010, T0251) diluted in assay buffer was then added and the reaction incubated for 60 min at rt. The reaction was stopped by addition of 10 mM EDTA, 25 mM Tris pH 7.5 and 1:200 dilution of PicoGreen dye (Invitrogen P7581).

Sequence of Polθ protein (amino acids 2-2590) (O75417 2-2590): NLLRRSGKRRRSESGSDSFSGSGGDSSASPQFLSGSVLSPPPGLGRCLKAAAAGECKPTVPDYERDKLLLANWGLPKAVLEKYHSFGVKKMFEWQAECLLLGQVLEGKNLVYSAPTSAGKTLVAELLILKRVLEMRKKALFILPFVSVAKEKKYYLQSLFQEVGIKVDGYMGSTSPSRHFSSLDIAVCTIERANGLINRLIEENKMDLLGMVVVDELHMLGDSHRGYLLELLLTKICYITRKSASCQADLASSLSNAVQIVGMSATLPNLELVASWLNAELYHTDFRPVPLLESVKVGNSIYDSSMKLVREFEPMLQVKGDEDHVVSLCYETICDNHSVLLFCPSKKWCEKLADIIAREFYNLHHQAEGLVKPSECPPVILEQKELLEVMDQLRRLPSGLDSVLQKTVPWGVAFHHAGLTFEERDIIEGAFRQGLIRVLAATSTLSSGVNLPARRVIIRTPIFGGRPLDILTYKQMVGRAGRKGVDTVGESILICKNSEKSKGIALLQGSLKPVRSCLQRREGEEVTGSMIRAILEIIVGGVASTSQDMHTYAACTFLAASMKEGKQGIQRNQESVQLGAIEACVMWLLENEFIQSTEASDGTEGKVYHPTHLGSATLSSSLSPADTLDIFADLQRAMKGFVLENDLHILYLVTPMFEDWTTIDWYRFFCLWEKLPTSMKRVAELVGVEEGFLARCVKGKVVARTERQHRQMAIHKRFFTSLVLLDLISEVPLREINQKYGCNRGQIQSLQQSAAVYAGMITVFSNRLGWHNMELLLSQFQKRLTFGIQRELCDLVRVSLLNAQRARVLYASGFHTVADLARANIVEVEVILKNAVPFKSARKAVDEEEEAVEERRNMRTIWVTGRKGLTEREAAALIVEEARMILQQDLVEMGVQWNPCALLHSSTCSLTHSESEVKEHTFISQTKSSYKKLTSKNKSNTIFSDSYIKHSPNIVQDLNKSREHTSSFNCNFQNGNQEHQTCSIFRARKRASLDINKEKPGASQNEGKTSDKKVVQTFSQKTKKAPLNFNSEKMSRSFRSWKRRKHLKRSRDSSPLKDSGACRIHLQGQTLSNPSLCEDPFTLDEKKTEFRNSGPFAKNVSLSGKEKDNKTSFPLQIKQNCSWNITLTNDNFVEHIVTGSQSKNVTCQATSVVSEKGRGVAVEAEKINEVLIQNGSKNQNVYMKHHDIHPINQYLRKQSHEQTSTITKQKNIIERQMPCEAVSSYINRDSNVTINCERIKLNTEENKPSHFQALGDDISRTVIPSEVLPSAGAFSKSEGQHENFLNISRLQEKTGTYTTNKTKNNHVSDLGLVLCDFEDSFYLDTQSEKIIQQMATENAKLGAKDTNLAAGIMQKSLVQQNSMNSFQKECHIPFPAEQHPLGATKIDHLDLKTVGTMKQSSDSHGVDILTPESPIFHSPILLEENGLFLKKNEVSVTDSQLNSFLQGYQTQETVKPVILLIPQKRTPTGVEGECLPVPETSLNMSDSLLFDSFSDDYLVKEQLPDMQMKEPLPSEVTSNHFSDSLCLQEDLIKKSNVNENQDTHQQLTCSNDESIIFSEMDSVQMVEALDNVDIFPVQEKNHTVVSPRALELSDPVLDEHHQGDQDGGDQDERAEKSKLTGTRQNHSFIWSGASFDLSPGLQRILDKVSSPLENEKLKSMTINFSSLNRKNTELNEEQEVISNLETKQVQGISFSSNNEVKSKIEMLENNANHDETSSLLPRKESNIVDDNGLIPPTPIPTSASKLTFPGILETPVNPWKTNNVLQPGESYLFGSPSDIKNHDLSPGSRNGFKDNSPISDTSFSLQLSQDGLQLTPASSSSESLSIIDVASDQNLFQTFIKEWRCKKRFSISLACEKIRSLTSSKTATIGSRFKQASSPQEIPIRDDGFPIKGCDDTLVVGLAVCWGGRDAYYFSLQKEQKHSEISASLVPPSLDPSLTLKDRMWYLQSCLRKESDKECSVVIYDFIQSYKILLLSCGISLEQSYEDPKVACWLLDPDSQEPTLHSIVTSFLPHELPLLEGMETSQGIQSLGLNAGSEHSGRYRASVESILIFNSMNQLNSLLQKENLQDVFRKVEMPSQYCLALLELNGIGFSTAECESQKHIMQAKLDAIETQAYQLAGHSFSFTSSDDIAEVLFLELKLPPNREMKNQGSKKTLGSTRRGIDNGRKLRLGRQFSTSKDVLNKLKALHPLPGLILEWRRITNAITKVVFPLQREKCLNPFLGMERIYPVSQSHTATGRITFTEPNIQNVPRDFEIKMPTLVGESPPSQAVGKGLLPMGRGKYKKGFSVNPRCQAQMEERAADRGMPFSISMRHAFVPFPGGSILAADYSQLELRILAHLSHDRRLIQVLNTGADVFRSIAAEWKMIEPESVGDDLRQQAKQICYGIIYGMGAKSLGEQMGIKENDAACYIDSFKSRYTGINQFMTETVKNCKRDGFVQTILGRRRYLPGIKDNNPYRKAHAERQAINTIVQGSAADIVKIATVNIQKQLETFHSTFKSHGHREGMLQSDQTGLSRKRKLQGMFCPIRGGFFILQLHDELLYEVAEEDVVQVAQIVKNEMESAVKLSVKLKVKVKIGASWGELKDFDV

Row | Compound | IC50 (Polθ IC50 (nM)) [nM] | IC50 (read-out: Polθ IC50) [nM]
1 | C=Cc1c(F)ccc(N(C)C(=O)[C@@H]2COC(=O)N2c2cc(C(F)(F)F)cc(C)n2)c1F [Example 107, (S)—N-(2,4-Difluoro-3-vinylphenyl)-N-methyl-3-(6-methyl-4-(trifluoromethyl)pyridin-2-yl)-2-oxooxazolidine-4-carboxamide] | 18 | 
2 | CCN(C(=O)[C@@H]1[C@H](O)[C@H](O)CN1c1nc(C)cc(C(F)(F)F)c1C#N)c1ccc(F)c(Cl)c1 [Example 57, (2S,3S,4R)-N-(3-Chloro-4-fluoro-phenyl)-1-(3-cyano-6-methyl-4-(trifluoromethyl)pyridin-2-yl)-N-ethyl-3,4-dihydroxypyrrolidine-2-carboxamide] | 10 | 
3 | CCN(C(=O)[C@@H]1C[C@H](N(C)[C@H]2CN(C(=O)OC(C)(C)C)C[C@H]2O)CN1c1cc(C(F)(F)F)cc(C)n1)c1ccc(F)c(F)c1 [Example 144, tert-Butyl (3S,4R)-3-(((3S,5S)-5-((3,4-difluorophenyl)(ethyl)carbamoyl)-1-(6-methyl-4-(trifluoromethyl)pyridin-2-yl)pyrrolidin-3-yl)(methyl)amino)-4-hydroxypyrrolidine-1-carboxylate] | 1310 | 
4 | Cc1cc(C)c(C#N)c(N2C[C@@H](O)C[C@H]2C(=O)N(C)c2ccc(F)c(C(F)(F)F)c2)n1 [Example 10, (2S,4S)-1-(3-Cyano-4,6-dimethylpyridin-2-yl)-N-(4-fluoro-3-(trifluoromethyl)phenyl)-4-hydroxy-N-methylpyrrolidine-2-carboxamide] | 316 | 
5 | Cc1cccc(N(C)C(=O)[C@@H]2C[C@H](O)CN2c2nc(N(C)C)cc(C(F)(F)F)c2C#N)c1 [Example 32, (2S,4S)-1-(3-Cyano-6-(dimethylamino)-4-(trifluoromethyl)pyridin-2-yl)-4-hydroxy-N-methyl-N-(m-tolyl)pyrrolidine-2-carboxamide] | 209 | 
6 | CCN(C(=O)[C@@H]1C[C@H](O)CN1c1nc(C)cc(C(F)(F)F)c1C#N)c1cccc(C)c1 [Example 22, (2S,4S)-1-(3-Cyano-6-methyl-4-(trifluoromethyl)pyridin-2-yl)-N-ethyl-4-hydroxy-N-(m-tolyl)-pyrrolidine-2-carboxamide] |  | 27
7 | Cc1cc(C(F)(F)F)cc(N2C(=O)NC[C@H]2C(=O)N(C)c2ccc3ccn(C)c3n2)n1 [Example 234, (S)—N-Methyl-N-(1-methyl-1H-pyrrolo[2,3-b]pyridin-6-yl)-3-(6-methyl-4-(trifluoromethyl)pyridin-2-yl)-2-oxoimidazolidine-4-carboxamide] | 5 | 
8 | Cc1cc(C(F)(F)F)cc(N2C(=O)OC[C@H]2C(=O)N(C)c2ccc3cn[nH]c3c2)n1 [Example 174, (S)—N-(1H-Indazol-6-yl)-N-methyl-3-(6-methyl-4-(trifluoromethyl)pyridin-2-yl)-2-oxooxazolidine-4-carboxamide] | 158 | 
9 | CCN(C(=O)[C@H]1C[C@@H](N(C)C2CCN(C(C)=O)C2)CN1c1nc(C)cc(C)c1C#N)c1cccc(C)c1 (stereo in doubt) [Example 52, (2R,4R)-4-((1-Acetylpyrrolidin-3-yl)(methyl)amino)-1-(3-cyano-4,6-dimethylpyridin-2-yl)-N-ethyl-N-(m-tolyl)pyrrolidine-2-carboxamide] | 588 | 
10 | CCN(C(=O)[C@@H]1C[C@H](N2CCOC(CO)C2)CN1c1nc(C)cc(C(F)(F)F)c1C#N)c1ccc(F)c(C)c1 (stereo partly drawn) [Example 150, (2S,4S)-1-(3-Cyano-6-methyl-4-(trifluoromethyl)pyridin-2-yl)-N-ethyl-N-(4-fluoro-3-methylphenyl)-4-(2-(hydroxymethyl)morpholino)pyrrolidine-2-carboxamide] | 11 | 
11 | Cc1cccc(N(C)C(=O)[C@@H]2C[C@H](O)CN2c2cc(C)c(Cl)c(C)n2)c1 [Example 29, (2S,4S)-1-(5-Chloro-4,6-dimethylpyridin-2-yl)-4-hydroxy-N-methyl-N-(m-tolyl)pyrrolidine-2-carboxamide] | 172 | 
12 | Cc1cccc(N(C)C(=O)[C@@H]2C[C@H](O)CN2c2nc(C)cc(C)c2C#N)c1 [Example 9, (2S,4S)-1-(3-Cyano-4,6-dimethylpyridin-2-yl)-4-hydroxy-N-methyl-N-(m-tolyl)pyrrolidine-2-carboxamide] | 87 | 
13 | Cc1cc(C)c(C#N)c(N2C[C@@H](O)C[C@H]2C(=O)N(C)c2cccc(Cl)c2)n1 [Example 13, (2S,4S)-N-(3-Chlorophenyl)-1-(3-cyano-4,6-dimethylpyridin-2-yl)-4-hydroxy-N-methylpyrrolidine-2-carboxamide] | 180 | 
14 | CCN(C(=O)[C@H]1C[C@@H](NC)CN1c1nc(C)cc(C)c1C#N)c1cccc(C)c1 (stereo in doubt) [Example 43, (2R,4R)-1-(3-Cyano-4,6-dimethylpyridin-2-yl)-N-ethyl-4-(methylamino)-N-(m-tolyl)-pyrrolidine-2-carboxamide] | 221 | 

Next, values leading:

Row | IC50 (Polθ IC50 (nM)) [nM] | IC50 (read-out: Polθ IC50) [nM] | Compound
15 | 26 |  | Cc1cc(C(F)(F)F)cc(N2C(=O)N(CCS(C)(=N)=O)C[C@H]2C(=O)N(C)c2ccc(F)c(Cl)c2)n1 (stereo partly drawn) [Example 213, (4S)—N-(3-Chloro-4-fluorophenyl)-N-methyl-3-(6-methyl-4-(trifluoromethyl)pyridin-2-yl)-1-(2-(S-methylsulfonimidoyl)ethyl)-2-oxoimidazolidine-4-carboxamide]
16 | 20 |  | Cc1cc(C(F)(F)F)cc(N2C(=O)OC[C@H]2C(=O)N(C)c2ccc(Br)c(Cl)c2)n1 [Example 172, (S)-N-(4-Bromo-3-chlorophenyl)-N-methyl-3-(6-methyl-4-(trifluoromethyl)pyridin-2-yl)-2-oxooxazolidine-4-carboxamide]
17 | 6 |  | Cc1cc(C(F)(F)F)cc(N2C(=O)[C@@H](O)[C@@H](O)[C@H]2C(=O)N(C)c2ccc(F)c(C)c2)n1 [Example 67, (2S,3S,4S)-N-(4-Fluoro-3-methyl-phenyl)-3,4-dihydroxy-N-methyl-1-(6-methyl-4-(trifluoromethyl)pyridin-2-yl)-5-oxopyrrolidine-2-carboxamide]
18 | 11 |  | [2H]C([2H])([2H])N(C(=O)[C@@H]1[C@H](O)[C@H](O)C(=O)N1c1cc(C(F)(F)F)cc(C)n1)c1ccc(F)c(Cl)c1 [Example 163, (2S,3S,4S)—N-(3-Chloro-4-fluorophenyl)-3,4-dihydroxy-N-(methyl-d3)-1-(6-methyl-4-(trifluoromethyl)pyridin-2-yl)-5-oxopyrrolidine-2-carboxamide]
19 | 8 |  | Cc1cc(C(F)(F)F)cc(N2C(=O)N(CC(O)CN3CCC(F)C3)C[C@H]2C(=O)N(C)c2ccc(F)c(Cl)c2F)n1 (stereo in doubt) [Example 215, (4S)—N-(3-Chloro-2,4-difluorophenyl)-1-(3-((R)-3-fluoropyrrolidin-1-yl)-2-hydroxy-propyl)-N-methyl-3-(6-methyl-4-(trifluoromethyl)pyridin-2-yl)-2-oxoimidazolidine-4-carboxamide]
20 | 36 |  | Cc1cc(C(C)(C)C)cc(N2C(=O)OC[C@H]2C(=O)N(C)c2ccc(F)c(Cl)c2)n1 [Example 123, (S)-3-(4-(tert-Butyl)-6-methylpyridin-2-yl)-N-(3-chloro-4-fluorophenyl)-N-methyl-2-oxooxazolidine-4-carboxamide]
21 | 32 |  | Cc1cc(C(F)(F)F)cc(N2C(=O)N(CCN3CCCC3CO)C[C@H]2C(=O)N(C)c2ccc(F)c(Cl)c2)n1 (single isomer, unassigned; isomer 2) [Example 199]
22 | 6 |  | Cc1cc(C(F)(F)F)cc(N2C(=O)N(CCS(C)(=N)=O)C[C@H]2C(=O)N(C)c2ccc(F)c(Cl)c2F)n1 (stereo partly drawn) [Example 212, (4S)—N-(3-Chloro-2,4-difluorophenyl)-N-methyl-3-(6-methyl-4-(trifluoromethyl)pyridin-2-yl)-1-(2-(S-methylsulfonimidoyl)ethyl)-2-oxoimidazolidine-4-carboxamide]
23 | 54 |  | CCc1cc(C(F)(F)F)cc(N2C(=O)OC[C@H]2C(=O)N(C)c2ccc(F)c(Cl)c2)n1 [Example 115, (S)—N-(3-Chloro-4-fluorophenyl)-3-(6-ethyl-4-(trifluoromethyl)pyridin-2-yl)-N-methyl-2-oxooxazolidine-4-carboxamide]
24 | 61 |  | Cc1cc(C(F)(F)F)cc(N2C(=O)N(CCN(C)C)C[C@H]2C(=O)N(C)c2ccc(F)c(Cl)c2)n1 [Example 182, (S)-N-(3-Chloro-4-fluorophenyl)-1-(2-(dimethylamino)ethyl)-N-methyl-3-(6-methyl-4-(trifluoromethyl)pyridin-2-yl)-2-oxoimidazolidine-4-carboxamide]
25 |  | 35 | Cc1cc(C(F)(F)F)cc(N2C(=O)OC[C@H]2C(=O)N(c2ccc(F)c(Cl)c2)C(C)C)n1 [Example 104, (S)-N-(3-Chloro-4-fluorophenyl)-N-isopropyl-3-(6-methyl-4-(trifluoromethyl)pyridin-2-yl)-2-oxooxazolidine-4-carboxamide]
26 | 16 |  | Cc1cc(C(F)(F)F)cc(N2C(=O)OC[C@H]2C(=O)N(C)c2ccc(F)c(Br)c2)n1 [Example 93, (S)-N-(3-Bromo-4-fluorophenyl)-N-methyl-3-(6-methyl-4-(trifluoromethyl)pyridin-2-yl)-2-oxooxazolidine-4-carboxamide]
27 | 28 |  | Cc1cc(C(F)(F)F)cc(N2C(=O)N(CCN3CCCC3CO)C[C@H]2C(=O)N(C)c2ccc(F)c(Cl)c2)n1 (single isomer, unassigned; isomer 1) [Example 198]
28 | 39 |  | CCc1cc(C)nc(N2C(=O)OC[C@H]2C(=O)N(C)c2ccc(F)c(Cl)c2)c1 [Example 119, (S)—N-(3-Chloro-4-fluorophenyl)-3-(4-ethyl-6-methylpyridin-2-yl)-N-methyl-2-oxooxazolidine-4-carboxamide]
29 | 4 |  | Cc1cc(C(F)(F)F)cc(N2C(=O)N(CC(O)CN3CCC(F)(F)C3)C[C@H]2C(=O)N(C)c2ccc(F)c(Cl)c2F)n1 (stereo partly drawn) [Example 216, (4S)—N-(3-Chloro-2,4-difluorophenyl)-1-(3-(3,3-difluoropyrrolidin-1-yl)-2-hydroxy-propyl)-N-methyl-3-(6-methyl-4-(trifluoromethyl)pyridin-2-yl)-2-oxoimidazolidine-4-carboxamide]
30 |  | 15 | Cc1cc(C(F)(F)F)cc(N2C(=O)N(CC3CN(C)C(=O)O3)C[C@H]2C(=O)N(C)c2ccc(F)c(Cl)c2F)n1 (single isomer, unassigned; isomer 1) [Example 229]
